Results published in patent US12077503B2, “Substituted cyclic amides and their use as herbicides” (FMC CORPORATION, priority 2015, dated 2024).
Where two headings read alike, the source gives them in different places.

Assays:
Experiment in all cases: Test A postemergence
Assay type in all cases: in vivo
[1] = test system: ragweed (common ragweed, Ambrosia elatior); details: Ambrosia artemisiifolia, post-emergence, 240 h; for pest or weed control at 125 g/ha: 125 g ai/ha; for pest or weed control at 31 g/ha: 31 g ai/ha, visual injury after approx. 10 d, 0 to 100 scale, 0 no effect, 100 complete control
How it was run: (§1)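 Visual injury, scored on a 0–100 scale relative to untreated controls, was recorded about 10 d after application. Treatments were a preemergence soil spray over planted seeds or a postemergence spray on plants at the one- to two-leaf stage, 2 to 10 cm tall, all in loam soil–sand blend in the greenhouse.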

[2] = test system: barnyardgrass (Echinochloa crus-galli); details: Echinochloa crus-galli, post-emergence, 240 h; for pest or weed control at 125 g/ha: 125 g ai/ha; for pest or weed control at 31 g/ha: 31 g ai/ha, visual injury after approx. 10 d, 0 to 100 scale, 0 no effect, 100 complete control
How it was run: as §1

[3] = test system: giant foxtail (Setaria faberii); details: Setaria faberi, post-emergence, 240 h; for pest or weed control at 125 g/ha: 125 g ai/ha; for pest or weed control at 31 g/ha: 31 g ai/ha, visual injury after approx. 10 d, 0 to 100 scale, 0 no effect, 100 complete control
How it was run: as §1

[4] = test system: wheat (Triticum aestivum); details: Triticum aestivum, post-emergence, 240 h; for plant injury at 125 g/ha: 125 g ai/ha; for plant injury at 31 g/ha: 31 g ai/ha, visual injury after approx. 10 d, 0 to 100 scale, 0 no effect, 100 complete control
How it was run: as §1

[5] = test system: blackgrass (Alopecurus myosuroides); details: Alopecurus myosuroides, post-emergence, 240 h; for pest or weed control at 125 g/ha: 125 g ai/ha; for pest or weed control at 31 g/ha: 31 g ai/ha, visual injury after approx. 10 d, 0 to 100 scale, 0 no effect, 100 complete control
How it was run: as §1

[6] = test system: ryegrass, Italian (Italian ryegrass, Lolium multiflorum); details: Lolium multiflorum, post-emergence, 240 h; for pest or weed control at 125 g/ha: 125 g ai/ha; for pest or weed control at 31 g/ha: 31 g ai/ha, visual injury after approx. 10 d, 0 to 100 scale, 0 no effect, 100 complete control
How it was run: as §1

[7] = postemergence, visual injury rating after approximately 10 d, read-out: Ragweed plant response rating (0 to 100 scale, 0 no effect, 100 complete control)
[8] = Postemergence, read-out: Plant response rating, Ragweed
[9] = postemergence, visual injury rating after approximately 10 d, read-out: Barnyardgrass plant response rating (0 to 100 scale, 0 no effect, 100 complete control)
[10] = Postemergence, read-out: Plant response rating, Barnyardgrass
[11] = postemergence, visual injury rating after approximately 10 d, read-out: Foxtail, Giant plant response rating (0 to 100 scale, 0 no effect, 100 complete control)
[12] = Postemergence, read-out: Plant response rating, Foxtail, Giant
[13] = postemergence, visual injury rating after approximately 10 d, read-out: Wheat plant response rating (0 to 100 scale, 0 no effect, 100 complete control)
[14] = Postemergence, read-out: Plant response rating, Wheat
[15] = postemergence, visual injury rating after approximately 10 d, read-out: Blackgrass plant response rating (0 to 100 scale, 0 no effect, 100 complete control)
[16] = Postemergence, read-out: Plant response rating, Blackgrass
[17] = postemergence, visual injury rating after approximately 10 d, read-out: Ryegrass, Italian plant response rating (0 to 100 scale, 0 no effect, 100 complete control)
[18] = Postemergence, read-out: Plant response rating, Ryegrass, Italian
[19] = postemergence, visual injury after approximately 10 d, 0 to 100 scale (0 no effect, 100 complete control), read-out: Plant response rating, Ragweed
[20] = postemergence, visual injury after approximately 10 d, 0 to 100 scale (0 no effect, 100 complete control), read-out: Plant response rating, Barnyardgrass
[21] = postemergence, visual injury after approximately 10 d, 0 to 100 scale (0 no effect, 100 complete control), read-out: Plant response rating, Foxtail, Giant
[22] = postemergence, visual injury after approximately 10 d, 0 to 100 scale (0 no effect, 100 complete control), read-out: Plant response rating, Wheat
[23] = postemergence, visual injury after approximately 10 d, 0 to 100 scale (0 no effect, 100 complete control), read-out: Plant response rating, Blackgrass
[24] = postemergence, visual injury after approximately 10 d, 0 to 100 scale (0 no effect, 100 complete control), read-out: Plant response rating, Ryegrass, Italian

In the case of `CN1CC[C@H](c2ccc3c(c2)OC(F)(F)O3)[C@@H](C(=O)Nc2cccc(F)c2F)C1=O` [Compound 812], the pest or weed control at 125 g/ha [1, 7] is reported as 0%, the pest or weed control at 31 g/ha [1, 8] is reported as 0% and the pest or weed control at 125 g/ha [2, 9] is reported as 90%. The pest or weed control at 31 g/ha [2, 10] was 90%, the pest or weed control at 125 g/ha [3, 11] was 90% and the pest or weed control at 31 g/ha [3, 12] was 70%. The plant injury at 125 g/ha [4, 13] was 60%, the plant injury at 31 g/ha [4, 14] was 20% and the pest or weed control at 125 g/ha [5, 15] was 80%. For the same compound, the pest or weed control at 31 g/ha [5, 16] was 40%, the pest or weed control at 125 g/ha [6, 17] was 30% and the pest or weed control at 31 g/ha [6, 18] was 0%.

In the case of `CCc1cc(CC)cc([C@H]2CN(C)C(=O)[C@@H]2C(=O)Nc2cccc(F)c2F)c1` [Compound 736], the pest or weed control at 125 g/ha [1, 19] is reported as 0%, the pest or weed control at 125 g/ha [2, 20] is reported as 90% and the pest or weed control at 125 g/ha [3, 21] is reported as 90%. It also gave a plant injury at 125 g/ha [4, 22] of 50%, a pest or weed control at 125 g/ha [5, 23] of 60% and a pest or weed control at 125 g/ha [6, 24] of 80%.

`CN1CC[C@H](c2ccc3c(c2)OC(F)(F)O3)[C@@H](C(=O)Nc2ccc(F)c(F)c2F)C1=O` [Compound 813] gave a pest or weed control at 125 g/ha [1, 7] of 0%, a pest or weed control at 31 g/ha [1, 8] of 0% and a pest or weed control at 125 g/ha [2, 9] of 80%. The pest or weed control at 31 g/ha [2, 10] was 40%, the pest or weed control at 125 g/ha [3, 11] was 80% and the pest or weed control at 31 g/ha [3, 12] was 70%. The plant injury at 125 g/ha [4, 13] was 30%, the plant injury at 31 g/ha [4, 14] was 0% and the pest or weed control at 125 g/ha [5, 15] was 80%. For the same compound, the pest or weed control at 31 g/ha [5, 16] was 30%, the pest or weed control at 125 g/ha [6, 17] was 20% and the pest or weed control at 31 g/ha [6, 18] was 0%.

`Cc1ccc([C@H]2CN(C)C(=O)[C@@H]2C(=O)Nc2ccccc2S(C)(=O)=O)cc1C` [Compound 734] showed a pest or weed control at 125 g/ha [1, 19] of 10%, a pest or weed control at 125 g/ha [2, 20] of 90% and a pest or weed control at 125 g/ha [3, 21] of 90%. It also gave a plant injury at 125 g/ha [4, 22] of 50%, a pest or weed control at 125 g/ha [5, 23] of 20% and a pest or weed control at 125 g/ha [6, 24] of 20%.

With `O=C1NC[C@H](c2ccc3c(c2)CCO3)[C@H]1C(=O)Nc1ccccc1F` [Compound 786] the pest or weed control at 125 g/ha [1, 19] was 0%, the pest or weed control at 125 g/ha [2, 20] was 80% and the pest or weed control at 125 g/ha [3, 21] was 40%. It also gave a plant injury at 125 g/ha [4, 22] of 0%, a pest or weed control at 125 g/ha [5, 23] of 0% and a pest or weed control at 125 g/ha [6, 24] of 0%.

With `Cc1ccc([C@H]2CN(C)C(=O)[C@@H]2C(=O)Nc2cccc(F)c2F)c(F)c1` [Compound 730] the pest or weed control at 125 g/ha [1, 19] was 20%, the pest or weed control at 125 g/ha [2, 20] was 100% and the pest or weed control at 125 g/ha [3, 21] was 90%. The plant injury at 125 g/ha [4, 22] was 30%, the pest or weed control at 125 g/ha [5, 23] was 50% and the pest or weed control at 125 g/ha [6, 24] was 40%.

For `Cc1nc([C@H]2CN(C)C(=O)[C@@H]2C(=O)Nc2cccc(F)c2F)cs1` [Compound 1281], the pest or weed control at 125 g/ha ([1]; Postemergence, visual rating about 10 d after treatment, read-out: Ragweed plant response rating (0 to 100 scale)) was 0%, the pest or weed control at 500 g/ha ([1]; Postemergence, 500 g ai/ha, visual injury, 0 to 100 scale (0 no effect, 100 complete control), approx. 10 d, read-out: Plant response rating, Ragweed) was 0% and the pest or weed control at 125 g/ha ([2]; Postemergence, visual rating about 10 d after treatment, read-out: Barnyardgrass plant response rating (0 to 100 scale, 0 no effect, 100 complete control)) was 20%. For the same compound, the pest or weed control at 500 g/ha ([2]; Postemergence, 500 g ai/ha, visual injury, 0 to 100 scale (0 no effect, 100 complete control), approx. 10 d, read-out: Plant response rating, Barnyardgrass) was 80%, the pest or weed control at 125 g/ha ([3]; Postemergence, visual rating about 10 d after treatment, read-out: Foxtail, Giant plant response rating (0 to 100 scale)) was 20% and the pest or weed control at 500 g/ha ([3]; Postemergence, 500 g ai/ha, visual injury, 0 to 100 scale (0 no effect, 100 complete control), approx. 10 d, read-out: Plant response rating, Foxtail, Giant) was 30%. It also gave a plant injury at 125 g/ha ([4]; Postemergence, visual rating about 10 d after treatment, read-out: Wheat plant response rating (0 to 100 scale)) of 0%, a plant injury at 500 g/ha ([4]; Postemergence, 500 g ai/ha, visual injury, 0 to 100 scale (0 no effect, 100 complete control), approx. 10 d, read-out: Plant response rating, Wheat) of 0% and a pest or weed control at 125 g/ha ([5]; Postemergence, visual rating about 10 d after treatment, read-out: Blackgrass plant response rating (0 to 100 scale)) of 0%. For the same compound, the pest or weed control at 500 g/ha ([5]; Postemergence, 500 g ai/ha, visual injury, 0 to 100 scale (0 no effect, 100 complete control), approx. 10 d, read-out: Plant response rating, Blackgrass) was 0%, the pest or weed control at 125 g/ha ([6]; Postemergence, visual rating about 10 d after treatment, read-out: Ryegrass, Italian plant response rating (0 to 100 scale)) was 0% and the pest or weed control at 500 g/ha ([6]; Postemergence, 500 g ai/ha, visual injury, 0 to 100 scale (0 no effect, 100 complete control), approx. 10 d, read-out: Plant response rating, Ryegrass, Italian) was 0%.

`COc1ccc([C@H]2CNC(=O)[C@@H]2C(=O)Nc2ccccc2S(C)(=O)=O)cc1F` [Compound 721] gave a pest or weed control at 125 g/ha [1, 19] of 0%, a pest or weed control at 125 g/ha [2, 20] of 10% and a pest or weed control at 125 g/ha [3, 21] of 0%. It also gave a plant injury at 125 g/ha [4, 22] of 0%, a pest or weed control at 125 g/ha [5, 23] of 0% and a pest or weed control at 125 g/ha [6, 24] of 0%.
